Laboratory results reported in BigSolDB 2.1.

Nc1nc(NC2CC2)c2ncn([C@H]3C=C[C@@H](CO)C3)c2n1
solubility (mole fraction)
Details | 278.15 K | 283.15 K | 288.15 K | 293.15 K | 298.15 K | 303.15 K | 308.15 K | 313.15 K | 318.15 K | 323.15 K
in acetone | 0.00115 | 0.00123 | 0.00131 | 0.00142 | 0.00155 | 0.00169 | 0.00183 | 0.00205 | 0.00225 | 0.00247
in ethanol | 0.00601 | 0.00651 | 0.00716 | 0.00803 | 0.00903 | 0.0104 | 0.0123 | 0.0142 | 0.0162 | 0.0184
in ethyl acetate | 0.000631 | 0.000705 | 0.000796 | 0.000906 | 0.00102 | 0.00112 | 0.00127 | 0.00147 | 0.00168 | 0.00192
in isobutanol | 0.00772 | 0.00823 | 0.00896 | 0.0101 | 0.0113 | 0.0121 | 0.0131 | 0.0144 | 0.0164 | 0.0182
in isopropanol | 0.00451 | 0.00483 | 0.00534 | 0.006 | 0.00655 | 0.00744 | 0.00855 | 0.0096 | 0.0111 | 0.0123
in methanol | 0.00623 | 0.00688 | 0.00825 | 0.00965 | 0.0109 | 0.0126 | 0.0147 | 0.0181 | 0.0209 | 0.0241
in methyl acetate | 0.000901 | 0.00101 | 0.0011 | 0.00123 | 0.0014 | 0.00156 | 0.00176 | 0.00206 | 0.0023 | 0.0026
in n-butanol | 0.00718 | 0.00798 | 0.0089 | 0.0103 | 0.0117 | 0.0133 | 0.0155 | 0.0177 | 0.0204 | 0.0231
in n-pentanol | 0.00898 | 0.0106 | 0.012 | 0.0134 | 0.0153 | 0.0169 | 0.0195 | 0.0226 | 0.0248 | 0.0277
in n-propanol | 0.00798 | 0.0087 | 0.00952 | 0.0107 | 0.0119 | 0.0136 | 0.0159 | 0.0184 | 0.0211 | 0.024
in sec-butanol | 0.00768 | 0.00844 | 0.00927 | 0.0104 | 0.0118 | 0.0134 | 0.015 | 0.0172 | 0.0197 | 0.0222
in water | 0.000239 | 0.000266 | 0.000295 | 0.000334 | 0.000386 | 0.000436 | 0.0005 | 0.000547 | 0.000649 | 0.000748
